The source of these data is publication PMC10458596, “Synthesis, In Silico Logp Study, and In Vitro Analgesic Activity of Analogs of Tetrapeptide FELL” (Pharmaceuticals, 2023).

Residues, ends and D or L forms follow the SMILES beside them.

Test [1] deals with male Wistar rats. The experiment in a line: Paw-pressure test (Randall-Selitto test), PPT. In kind it is in vivo, rat. The following applies: for Analgesic activity (PPT) over time: 0.25 mg/kg i.p. in saline, measured every 10 min from 10th to 50th min, n = 8-10 per group, PPT in AU, mean ± S.E.M. (Figure 2). The protocol: (§1) The experiments were carried out on male Wistar rats (180–200 g) kept under normal conditions at ambient room temperature (22 °C). The animals were divided into five experimental groups, each including 8–10 animals, and a control group (n = 10). All experimental procedures were carried out between 10:00 a.m. and 1:00 p.m. after having been approved by the Research Ethics Commission of the Medical University—Sofia.
(§2) The control group received 0.2 mL of saline intraperitoneally injected (i.p.), while the animals from each one of the experimental groups received 0.2 mL (0.25 mg/kg, i.p.) of one of the five newly synthesized analogs dissolved in saline.
(§3) Changes in the mechanical nociceptive thresholds (PPT) of experimental animals were measured by an analgesimeter. Pressure was applied to the hind paw, and the value (g) required to elicit a nociceptive response (i.e., a squeak or struggle) was taken as the mechanical nociceptive threshold. A cut-off value of 500 g was used to prevent damage to the paw.
(§4) Nociception was evaluated every 10 min from the 10th minute after the newly synthesized analog was administered until the 50th minute.
The results were statistically assessed by one-way analysis of variance followed by a Newman-Keuls post-hoc comparison test. Values are represented as mean ± S.E.M. Values of p < 0.05 were considered to indicate statistical significance.

The subject of test [2] is male Wistar rats. The experiment in a line: Paw-pressure test after Naloxone or AM251 pretreatment. The format is in vivo, rat. To be noted: 10th to 50th min (Figure 3); for Analgesia (PPT) after AM251 pretreatment: peptide i.p. after AM251 (CB1R antagonist) pretreatment; for Analgesia (PPT) after Naloxone pretreatment: peptide i.p. after Naloxone (MOR antagonist) pretreatment. The protocol:
as §1, §2, §3, §4
In order to estimate which type of receptor participates in the analgesic effects of the newly synthesized substances, pretreatments have been made with Naloxone—an antagonist with a high binding affinity for the MORs, clinically used to prevent fatal overdose consequences—and AM251—a CB1Rs’ antagonist.

For test [3], the system named is white blood cells (WBC), especially neutrophils and macrophages, in bronchoalveolar fluid (BALF). The arrangement: method as in PMID 25632019. The following applies: cited from earlier work.

Take `CC(C)C[C@H](NC(=O)[C@H](CC(C)C)NC(=O)[C@H](CCC(=O)O)NC(=O)[C@@H](N)Cc1ccccc1)C(N)=O` [BB1, H-Phe-Glu-Leu-Leu-NH2] (H-FELL-NH2): the “Analgesic activity (PPT) over time” value in test [1] is on record as “gradually increasing analgesic activity over time”. In test [1] (0.25 mg/kg i.p., 50th min, F = 5.38217, p = 0.042776), the “Analgesic activity (PPT) vs parent compound BB11 at the end of the reported period” value is recorded as “exceeded that of the parent compound BB11”. Besides, in test [2], the “Analgesia (PPT) after AM251 pretreatment” value is recorded as “completely abolished the analgesia” and the “Analgesia (PPT) after Naloxone pretreatment” value is given as “completely abolished the analgesia”.

As for `CCCC[C@H](NC(=O)[C@H](CCCC)NC(=O)[C@H](CCC(=O)O)NC(=O)[C@@H](N)Cc1ccccc1)C(N)=O` [BB2, H-Phe-Glu-Nle-Nle-NH2] (HELM PEPTIDE1{F.E.[Nle].[Nle].[am]}$$$$V2.0), the “Analgesic activity (PPT) over time” value in test [1] is “fluctuating analgesia that did not reach the values of the parent compound”.

Consider `CC(C)[C@H](NC(=O)[C@@H](NC(=O)[C@H](CCC(=O)O)NC(=O)[C@@H](N)Cc1ccccc1)C(C)C)C(N)=O` [BB3, H-Phe-Glu-Val-Val-NH2] (H-FEVV-NH2), for which the “Analgesic activity (PPT) over time” value in test [1] is “highest but short-lasting analgesic activity”. For the same compound, the “Analgesic activity (PPT) vs BB11 at the 10th minute” value in test [1] (0.25 mg/kg i.p., 10th min, F = 92.35602, p < 0.00001) is given as “exceeded that of BB11”.

`CC(C)C[C@H](NC(=O)[C@H](CC(C)C)NC(=O)[C@H](CCC(=O)O)NC(=O)[C@@H](N)Cc1ccccc1)C(=O)O` [BB11, H-Phe-Glu-Leu-Leu-OH, reference compound] (H-FELL-OH): the “Analgesic activity (PPT) over time” value in test [1] is “constantly increased PPT for the total time of the evaluation”. For the same compound, in test [3], the “Reduction of total number of white blood cells and their accumulation in BALF in the lungs” value (shortened to “Reduction”) is on record as 51%. Besides, in test [2], the “Analgesia (PPT) after AM251 pretreatment” value is recorded as “completely abolished the analgesia” and the “Analgesia (PPT) after Naloxone pretreatment” value is recorded as “completely abolished the analgesia”.

On to “H-Phe-Glu-Ile-Ile-NH2 [BB4, FELL analog with Ile at positions 3 and 4, C-terminal amide]”, for which the “Analgesic activity (PPT) over time” value in test [1] is recorded as “fluctuating analgesia that did not reach the values of the parent compound”.

TDIFELL: the “Reduction” value in test [3] is 54%.

As to TDIFELLK, in test [3], the “Reduction” value is 57%.
